From patent publication US12304891B2, “Removal of Al-salts, HCl, NaCl and organic by-product from DIOPAT suspension by means of ceramic membranes in strong acidic conditions at high temperature” (BASF SE, priority 2018, dated 2025)

Type: physicochemical
Method: The temperature was adjusted to 90° C. The 2,4-DHBP concentration in the feed DIOPAT suspension of the diafiltration was about 0.32%. […] Thus, some 2,4-DHBP probably was already precipitated and had to be brought back into solution during the DF process. In the DF process, the DIOPAT suspension was held at 90° C. and was permanently washed with 12 kg fresh water. During the washing process, the DIOPAT concentration stayed constant. To separate the Al-salts and organic by-products, the DIOPAT suspension was pumped from the feed vessel to a ceramic membrane module and from there back to the feed vessel. In the ceramic membrane, the dissolved components (Al-salts and some org. components such as 2,4-DHBP) passed through the membrane. The DIOPAT particles stayed in the suspension and went back to the feed vessel. The permeate was send to the waste water treatment plant. In total, the suspension at the beginning of the membrane process (suspension after precipitation) was washed with a washing factor of 4.5. Then, the Al-salt concentration in the retentate was less than approx. 65 ppm.

SMILES: O=C(c1ccccc1)c1ccc(O)cc1O [2,4-DHBP, 2,4-dihydroxybenzophenone]
- solubility in acidic water: about 0.18%
